Measurements: publication PMC9532399, “The lysosomal transporter TAPL has a dual role as peptide translocator and phosphatidylserine floppase” (Nature Communications, 2022)
Where a chain is given by its changes, count along the chain named. Residues, ends and D or L forms follow the SMILES beside them. *: point of attachment. X1 = CC[N+]1=C(C=CC=CC=C2N(CCCCCC(=O)NCCN3C(=O)CC(*)C3=O)c3ccc(S(=O)(=O)[O-])cc3C2(C)C)C(C)(C)c2cc(S(=O)(=O)O)ccc21

Columns and labels:
mouse TAPL ΔTMD0 = biological target: T1, mouse TAPL ΔTMD0 (Mus musculus, UniProt Q9JJ59); test: NADH-coupled ATPase assay, nanodisc-reconstituted ΔTMD0; format: biochemical; conditions: POPE nanodiscs, data not shown
T1 construct: thrombin cleavage site (C); eGFP (C); 10XHis (C); made in house; host or cells: Trichoplusia ni High Five (Hi5) insect cells, baculovirus (pVL1393)
T1 sequence (Q9JJ59 143-762): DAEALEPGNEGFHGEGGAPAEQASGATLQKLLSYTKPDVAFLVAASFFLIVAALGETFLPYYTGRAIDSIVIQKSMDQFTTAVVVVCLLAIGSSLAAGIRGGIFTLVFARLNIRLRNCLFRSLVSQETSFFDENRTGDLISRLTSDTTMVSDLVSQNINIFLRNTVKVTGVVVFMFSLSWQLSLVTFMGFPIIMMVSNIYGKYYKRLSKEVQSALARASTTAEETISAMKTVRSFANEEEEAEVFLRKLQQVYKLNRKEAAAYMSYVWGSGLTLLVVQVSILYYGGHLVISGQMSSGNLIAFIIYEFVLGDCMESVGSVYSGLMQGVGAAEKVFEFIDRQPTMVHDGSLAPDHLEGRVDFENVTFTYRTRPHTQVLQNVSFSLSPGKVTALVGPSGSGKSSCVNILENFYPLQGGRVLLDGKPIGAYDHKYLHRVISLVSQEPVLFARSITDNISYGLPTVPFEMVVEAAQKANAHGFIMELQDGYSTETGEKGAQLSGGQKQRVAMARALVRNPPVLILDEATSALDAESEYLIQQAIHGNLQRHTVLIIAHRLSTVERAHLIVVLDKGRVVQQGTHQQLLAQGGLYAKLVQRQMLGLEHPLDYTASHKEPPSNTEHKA
Procedure: […] Each lipid was dissolved in 0.17% (w/v) DM and 0.017% (w/v) CHS and mixed with MSP1 and DM/CHS-purified ΔTMD0 at a molar ratio of 150:4:1. After incubation on ice for 10 min, the mixture was treated with 60 mg of Bio-beads (Bio-Rad) at 4 °C for 4 h to remove detergent. The supernatant was additionally incubated overnight with 120 mg of fresh Bio-Beads at 4 °C. The final supernatant was injected onto a Superdex 200 Increase 10/300 GL column equilibrated with a buffer of 20 mM HEPES–NaOH pH 7.5 and 200 mM NaCl. The elution fractions containing protein-loaded nanodiscs were pooled and used for cryo-EM and functional analyses.
The ATPase activities of proteins obtained after various purification procedures were determined by NADH-coupled spectrophotometric assays. 10 μg of DM-purified or nanodisc-reconstituted protein was added to 140 μL of reaction buffer containing 50 mM HEPES–KOH pH 8.0, 60 μg/mL pyruvate kinase (Roche), 16 μg/mL lactate dehydrogenase (Roche), 10 mM phosphoenolpyruvate (Roche), 0.3 mM NADH, 3 mM ATP, 10 mM MgCl2, and 0.17% (w/v) DM in the presence or absence of 250 μM peptide. […] ATP hydrolysis activity was monitored at 37 °C for 3 min by measuring the rate of decline of NADH absorbance at 340 nm. […] The kinetic parameters of ATP hydrolysis were calculated by fitting the initial rates of ATP hydrolysis to the Michaelis–Menten equation using PRISM 4.0 (GraphPad software).

[1] = Aggregation in ATPase reaction buffer; format: physicochemical; conditions: addition to the ATPase reaction buffer, data not shown
Procedure: The ATPase activities of proteins obtained after various purification procedures were determined by NADH-coupled spectrophotometric assays. 10 μg of DM-purified or nanodisc-reconstituted protein was added to 140 μL of reaction buffer containing 50 mM HEPES–KOH pH 8.0, 60 μg/mL pyruvate kinase (Roche), 16 μg/mL lactate dehydrogenase (Roche), 10 mM phosphoenolpyruvate (Roche), 0.3 mM NADH, 3 mM ATP, 10 mM MgCl2, and 0.17% (w/v) DM in the presence or absence of 250 μM peptide. For proteins reconstituted into nanodiscs, DM was not added to the reaction buffer. For lipid-stimulated ATPase assays, the thin film of lipids was hydrated in 100 μL of buffer containing 50 mM HEPES–KOH pH 8.0 and 10 mM MgCl2 to yield a 10 mM solution. After sonication of the lipid solution for 10 min to decrease its turbidity, the reaction was initiated by adding varying concentrations of lipids to the mixture. ATP hydrolysis activity was monitored at 37 °C for 3 min by measuring the rate of decline of NADH absorbance at 340 nm. To inhibit ATP hydrolysis, the reaction mixture was incubated with 3 mM AMP-PNP or 8 mM NaF/2 mM BeSO4 for 5 min at RT. The kinetic parameters of ATP hydrolysis were calculated by fitting the initial rates of ATP hydrolysis to the Michaelis–Menten equation using PRISM 4.0 (GraphPad software).

TAPL Y405A mutant = biological target: T2, TAPL Y405A mutant (Mus musculus, UniProt Q9JJ59, Y405A); test: Microscale thermophoresis, DM-purified Y405A; format: binding; conditions: Y405A vs wild-type
T2 construct: thrombin cleavage site (C); eGFP (C); 10XHis (C); made in house; host or cells: Trichoplusia ni High Five (Hi5) insect cells, baculovirus (pVL1393)
T2 sequence (Q9JJ59 143-762 Y405A): T1 sequence (Q9JJ59 143-762) with Y263A
Procedure: Binding of 9-mer peptide (RRYQNSTC^Cy-5L) to DM-purified ΔTMD0 was monitored by microscale thermophoresis as described previously. Briefly, 9-mer peptide was incubated with a 10x molar excess of Cy5 dye (Thermo Fisher Scientific) in 50 mM HEPES–NaOH pH 7.5 at RT for 2 h. The labeled peptide was purified from the excess dye with a desalting column. Cy5-labeled peptide (0.2 μM) was added to serial 2-fold dilutions of protein. The mixtures were incubated for 10 min at RT and loaded onto Monolith NT.115 standard-treated capillaries (NanoTemper Technologies). Thermophoretic movements were induced by infrared laser activation. Subsequent fluorescence changes were monitored with a Monolith NT.115 pico device and plotted against protein concentration. The results were analyzed with MO.Affinity Analysis software.

[2] = design: method as in PMID 11867457; conditions: cited from earlier work

## CCCCCCCC/C=C\CCCCCCCC(=O)O[C@H](COC(=O)CCCCCCCCCCCCCCC)COP(=O)(O)OCCN [POPE, 1-palmitoyl-2-oleoyl-sn-glycero-3-phosphoethanolamine]
Mouse TAPL ΔTMD0
  ΔTMD0 ATPase activity in nanodiscs: no ΔTMD0 activity was detected
[1]
  aggregation: caused nonspecific aggregation

## CC[N+]1=C(C=CC=CC=C2N(CCCCCC(=O)NCCN3C(=O)CC(SC[C@H](NC(=O)[C@@H](NC(=O)[C@H](CO)NC(=O)[C@H](CC(N)=O)NC(=O)[C@H](CCC(N)=O)NC(=O)[C@H](Cc4ccc(O)cc4)NC(=O)[C@H](CCCNC(=N)N)NC(=O)[C@@H](N)CCCNC(=N)N)[C@@H](C)O)C(=O)N[C@@H](CC(C)C)C(=O)O)C3=O)c3ccc(S(=O)(=O)[O-])cc3C2(C)C)C(C)(C)c2cc(S(=O)(=O)O)ccc21 (stereo partly drawn) [RRYQNSTC^Cy-5L] (H-RRYQNSTC(X1)L-OH; N-terminus and C-terminus assumed)
TAPL Y405A mutant
  decrease in peptide affinity: 73 fold

## CC(C)CCC[C@@H](C)[C@H]1CC[C@H]2[C@@H]3CC=C4C[C@@H](O)CC[C@]4(C)[C@H]3CC[C@]12C [cholesterol]
[2]
  time of spontaneous movement across the liposome bilayer: < 1 min
